Measurements published in patent US7045537B1, “Protein structures and protein fibres” (The University of Sussex, priority 1999, dated 2006).
Residues, ends and D or L forms follow the SMILES beside them.

How the values were obtained:
Format in all cases: physicochemical
[1] = Circular dichroism (CD) spectroscopy of peptides and peptide mixtures; settings: individual peptide, 10 mM MOPS pH 7, 5° C.
Procedure: Peptide samples were incubated at 5° C. in 10 mM MOPS (3-(N-Morpholino)propanesulfonic acid), pH 7. Sample concentrations were determined from their UV absorbance at 280 nm (SAF-p1) and 214 nm (SAF-p2). After baseline correction, ellipticities in mdeg were converted to molar ellipticities (deg cm^2 dmol-res^−1) by normalizing for the concentration of peptide bonds. Data were recorded in a cell of 1 mm path length by integrating the signal for 5s (and 1s for the fresh 100 μM peptide mixture) every nm in the range 205–260 nm. CD measurements were made using a JASCO J-715 spectropolarimeter fitted with a Peltier temperature controller.
The CD data shown in FIG. 3 provides spectroscopic evidence for the formation of helical structures by the SAF peptides.
Consistent with our design, neither SAF-p1 nor SAF-p2 was highly structured in aqueous solution at pH 7 and 5° C. (FIG. 3). However, when mixed in equal proportions the circular dichroism (CD) spectrum changed and, moreover, was markedly different from the theoretical spectrum generated by averaging the spectra for the isolated peptides. In particular, the spectrum for the mixture had intense minima at 208 and 222 nm consistent with the formation of α-helical structure, but these features were not as pronounced in the spectra of the individual peptides. This was clear evidence that the two peptides interacted to form an α-helical structure as designed. Furthermore, and as expected for a multimerization event, the magnitude of these spectral changes depended on peptide concentration; a SAF mixture with 10 μM of each peptide, did show a weak signal indicative of some α-helical structure, however, a 100 μM mixture gave a much stronger signal (FIGS. 3A&B).
The shape and intensity of spectra from 100 μM mixtures of the SAF peptides also changed with time (FIG. 3B). […] After incubation of the mixture for 1 hour at 5° C. (“maturation”), however, the signal at 222 nm was more intense, and indicated approximately 75% α-helix, consistent with substantial coiled-coil formation.

[2] = Electron microscopy (TEM/SEM) of peptide preparations; settings: individual peptide
Procedure: To confirm fibre assembly, we used electron microscopy to visualize structures in the peptide preparations directly. For TEM experiments, peptide samples were incubated for 1 h at 5° C. in filtered 10 mM MOPS, pH 7. A drop of peptide solution was applied to a carbon-coated copper specimen grid (Agar Scientific Ltd, Stansted, UK), and dried with filter paper before negative staining with 0.5% aqueous uranyl acetate and then dried at 5° C. A “fresh” SAF peptide mixture was prepared by mixing preincubated solutions of the individual peptides at 200 μM directly on the specimen grid, before drying and negative staining as described. Grids were examined in a Hitachi 7100 TEM at 100 kV and digital images were acquired with a (800×1200 pixel) charge-coupled device camera (Digital Pixel Co. Ltd., Brighton, UK) and analyzed (Kinetic Imaging Ltd., Liverpool, UK).
For scanning electron microscopy (SEM) experiments, negatively-stained specimen grids were sputter-coated with gold and examined in a Leo Stereoscan 420 SEM at 20 kV and with a probe current of 10 pA.

[3] = Linear dichroism (LD) spectroscopy under shear flow; settings: 20 μM
Procedure: Linear dichroism (LD) spectroscopy was also used to test if elongated structures were being formed as designed. Long polymers such as DNA molecules can be oriented by shear flow. This effect can be monitored by LD spectroscopy provided that chromophores also become aligned by the flow (M. Bloemendal (1994) Chem. Soc. Rev. 23, 265; A. Rodger and B. Norden (1997) Oxford Chemistry Masters (Oxford University Press, Oxford), vol. 1).
Peptide samples were prepared for LD as for CD. LD data were collected on samples spinning in a couette flow cell by integrating the signal for 2 s every nm in the range […], using a JASCO J-715 spectropolarimeter. After baseline correction, absorbance was converted to molar extinction coefficient (1 mol-res^−1 cm^−1) by normalizing for the concentration of peptide bonds. A linear correction for a sloping baseline was made to the data from the 100 μM SAF peptide mixture.

| Compound | CD DATA @ 10 μM (α-helix) [1] | CD DATA @ 100 μM (α-helix) [1] | EM DATA @ 100 μM (fibres) [2] | LD signal [3] |
| --- | --- | --- | --- | --- |
| CC[C@H](C)[C@H](NC(=O)[C@H](CCCCN)NC(C)=O)C(=O)N[C@@H](C)C(=O)N[C@@H](C)C(=O)N[C@@H](CC(C)C)C(=O)N[C@@H](CCCCN)C(=O)N[C@@H](CCC(N)=O)C(=O)N[C@@H](CCCCN)C(=O)N[C@H](C(=O)N[C@@H](C)C(=O)N[C@@H](C)C(=O)N[C@@H](CC(C)C)C(=O)N[C@@H](CCCCN)C(=O)N[C@@H](CCC(N)=O)C(=O)N[C@@H](CCC(=O)O)C(=O)N[C@H](C(=O)N[C@@H](CC(=O)O)C(=O)N[C@@H](C)C(=O)N[C@@H](CC(C)C)C(=O)N[C@@H](CCC(=O)O)C(=O)N[C@@H](Cc1ccc(O)cc1)C(=O)N[C@@H](CCC(=O)O)C(=O)N[C@@H](CC(N)=O)C(=O)N[C@@H](CC(=O)O)C(=O)N[C@@H](C)C(=O)N[C@@H](CC(C)C)C(=O)N[C@@H](CCC(=O)O)C(=O)N[C@@H](CCC(N)=O)C(N)=O)[C@@H](C)CC)[C@@H](C)CC [SAF-p1B, *K IAALKQK IAALKQE IDALEYE NDALEQ*] (Ac-KIAALKQKIAALKQEIDALEYENDALEQ-NH2) | ~60% | ~70% | – | – |
| CC[C@H](C)[C@H](NC(=O)[C@H](CCC(=O)O)NC(=O)[C@H](CCC(N)=O)NC(=O)[C@H](CCC(=O)O)NC(=O)[C@H](CC(C)C)NC(=O)[C@H](C)NC(=O)[C@H](C)NC(=O)[C@@H](NC(=O)[C@H](CCC(=O)O)NC(=O)[C@H](CCC(N)=O)NC(=O)[C@H](CCCCN)NC(=O)[C@H](CC(C)C)NC(=O)[C@H](Cc1c[nH]cn1)NC(=O)[C@H](C)NC(=O)[C@H](CC(N)=O)NC(=O)[C@H](CCCCN)NC(=O)[C@H](Cc1c[nH]c2ccccc12)NC(=O)[C@H](CCCCN)NC(=O)[C@H](CC(C)C)NC(=O)[C@H](C)NC(=O)[C@H](CCCNC(=N)N)NC(=O)[C@@H](NC(=O)[C@H](CCCCN)NC(C)=O)[C@@H](C)CC)[C@@H](C)CC)C(=O)N[C@@H](C)C(=O)N[C@@H](C)C(=O)N[C@@H](CC(C)C)C(=O)N[C@@H](CCC(=O)O)C(=O)N[C@@H](CCC(N)=O)C(N)=O [SAF-p2B, *K IRALKWK NAHLKQE IAALEQE IAALEQ*] (Ac-KIRALKWKNAHLKQEIAALEQEIAALEQ-NH2) | ~60% | ~95% | – | – |
| CC[C@H](C)[C@H](NC(=O)[C@H](CCC(=O)O)NC(=O)[C@H](CCC(N)=O)NC(=O)[C@H](CCC(=O)O)NC(=O)[C@H](CC(C)C)NC(=O)[C@H](C)NC(=O)[C@H](C)NC(=O)[C@@H](NC(=O)[C@H](CCC(=O)O)NC(=O)[C@H](CCC(N)=O)NC(=O)[C@H](CCCCN)NC(=O)[C@H](CC(C)C)NC(=O)[C@H](Cc1c[nH]cn1)NC(=O)[C@H](C)NC(=O)[C@H](CC(N)=O)NC(=O)[C@H](CCCCN)NC(=O)[C@H](Cc1c[nH]c2ccccc12)NC(=O)[C@H](CCCCN)NC(=O)[C@H](CC(C)C)NC(=O)[C@H](C)NC(=O)[C@H](CCCNC(=N)N)NC(=O)[C@@H](NC(=O)[C@@H](N)CCCCN)[C@@H](C)CC)[C@@H](C)CC)C(=O)N[C@@H](C)C(=O)N[C@@H](C)C(=O)N[C@@H](CC(C)C)C(=O)N[C@@H](CCC(=O)O)C(=O)N[C@@H](CCC(N)=O)C(=O)O [SAF-p2C] (H-KIRALKWKNAHLKQEIAALEQEIAALEQ-OH) | unfolded | ~20% | thin | – |
| tropomyosin [reference compound] | – | – | – | could be aligned to give a LD signal |
